Results as given in ChEMBL document CHEMBL1146647, “First total synthesis of structurally unique flavonoids and their strong anti-inflammatory effect” (2004).

Tested on: Mus musculus
Assay: Percentage increase of mice ear thickness at 10 ug/kg
Format: functional

Row | SMILES | Increase [%]
1 | O=c1cc(-c2ccc(O)cc2)oc2cc3c(c(O)c12)[C@@H]1O[C@H](CO)[C@@H](O)[C@H](O)[C@@H]1O3 | 30
2 | O=c1cc(-c2ccccc2)oc2cc3c(c(O)c12)[C@@H]1O[C@H](CO)[C@@H](O)[C@H](O)[C@@H]1O3 | 59
